Data as given in US12714714B2, “Combination therapy for treating executive function disorders” (Anaka Pharmaceuticals, Inc., priority 2021, dated 2026).
Several values for one entry are separate records, joined by “and”; a condition that tells them apart may be missing. Identical values can stand only once.

What was measured:
[1] = system: Severe ADHD; assay: Case study A: (Example 3); format: in vivo, human
Text: (§1) The combination of lacosamide and oxcarbazepine has been administered to three additional patients with various symptoms associated with executive function disorder. The combination of lacosamide and oxcarbazepine was successful in alleviating different symptoms of executive function disorder.

[2] = system: children who take methylphenidate; conditions: cited from earlier work
[3] = system: patients suffering from ADHD; assay: Determination of clinically effective dose, lacosamide monotherapy vs combination therapy (Example 1); format: in vivo, human; conditions: for Clinically effective dose of lacosamide: in monotherapy vs in combination therapy with oxcarbazepine
Method: (§2) The effects of lacosamide monotherapy were tested in three patients (two boys; and one child) suffering from ADHD over the period of 6 months. After the period of 6 months, the treatment was discontinued for 45 days. Next, the three patients were treated with a combination of lacosamide and oxcarbazepine for a period of 3 months. The results of monotherapy and combination therapy were compared.
(§3) Patients were monitored clinically every week, during the whole duration of the study. They were also monitored on their pedagogic condition and evolution: before any treatment, mid-term and by the end of the lacosamide monotherapy and combination treatment. In addition, the patients were monitored neuropsychologicaly through the administration of different tests, pre- and post-treatment. A basal measure of their executive capabilities was established before any treatment.
(§4) Initially, a dose of 50 mg/12 hrs of lacosamide was administered to every patient. Through the study, the dose of lacosamide was increased (by 100 mg per week) to […] for every patient, following clinical response (on attention capacity, sleep, tiredness, mood stability, comprehension and general cognitive improvement).
Initially, a dose of 50 mg/12 hrs of lacosamide and a dose of 300 mg/12 hrs of oxcarbazepine was administered to every patient. Through the study, the dose of lacosamide was increased (by 100 mg per week) to 200 mg/12 hrs for every patient, following clinical response (attention capacity, sleep, tiredness, mood stability, comprehension and general cognitive improvement). […] The dose for oxcarbazepine was increased in week 7 to 450 mg/12 hrs for every patient, maintaining the previously reached respective doses for lacosamide.
Starting from this initial dose (50 mg/12 hs), the dose of lacosamide was adjusted to reflect clinically effective dose, based on clinical signs. Lacosamide was initially raised by 100 mg/24 hs in two takes. The highest dose of lacosamide was 400 mg/24 hs. In the combination therapy, oxcarbazepine was raised from 600 mg to 900 mg for all participants after 6 weeks, regardless of their lacosamide dosage.
The final dosage of lacosamide and oxcarbazepine was established based on patients' clinical results for executive dysfunction and the neurophysiological symptoms (e.g. hyperactivity, enuresis, and lethargy).

[4] = system: patients suffering from ADHD; assay: Clinical evolution under treatment, weekly clinical and pedagogic monitoring (Example 1); format: in vivo, human
Method: as §2, §3
The treatment was delivered twice a day and went on for at least 3 months.
as §4
Initially, a dose of 50 mg/12 hrs of lacosamide and a dose of 300 mg/12 hrs of oxcarbazepine was administered to every patient. Through the study, the dose of lacosamide was increased (by 100 mg per week) to 200 mg/12 hrs for every patient, following clinical response (attention capacity, sleep, tiredness, mood stability, comprehension and general cognitive improvement). In response to clinical presentation of all three patients, the dose of lacosamide was decreased to 100 mg/12 hrs and maintained thereafter. The dose for oxcarbazepine was increased in week 7 to 450 mg/12 hrs for every patient, maintaining the previously reached respective doses for lacosamide.

[5] = system: patients suffering from ADHD; assay: TONI-2 nonverbal reasoning test (Example 1); format: in vivo, human
Text: as §3
(§5) The results of neuropsychological tests for lacosamide monotherapy and lacosamide and oxcarbazepine combination therapy were evaluated.

[6] = system: patients suffering from ADHD; assay: Conners' Continuous Performance Test CPT-2 (Example 1); format: in vivo, human
Text: as §3
The results of neuropsychological tests for lacosamide monotherapy and lacosamide and oxcarbazepine combination therapy were evaluated. […] The other patient had similar results for monotherapy and combination treatment.

[7] = system: patients suffering from ADHD; assay: WCST (Example 1); format: in vivo, human
Text: as §3, §5

[8] = system: patients suffering from ADHD; assay: Stroop test (Example 1); format: in vivo, human
Text: as §3, §5

[9] = system: voltage-gated sodium channels; conditions: cited from earlier work
[10] = system: AMPA, kainate, NMDA, GABAA, GABAB, dopaminergic, serotonergic, adrenergic, muscarinic or cannabinoid receptors; conditions: cited from earlier work
[11] = system: potassium or calcium currents; conditions: cited from earlier work
[12] = system: reuptake of norepinephrine, dopamine, and serotonin; conditions: cited from earlier work
[13] = molecular target: GABA transaminase (Homo sapiens, UniProt P80404); conditions: cited from earlier work
[14] = system: Severe autism (Level 3); assay: Case Study C: (Example 3); format: in vivo, human
Text: as §1

[15] = patient 001, October 2020 = lacosamide monotherapy, December 2020 = combination therapy
[16] = patient 002, October 2020 = lacosamide monotherapy, December 2020 = combination therapy
[17] = patient 003, October 2020 = after 6 months lacosamide alone, December 2020 = after 3 months combined therapy
[18] = patient 003, table: December 2020, combined therapy, text b168: monotherapy vs combined therapy

GABA transaminase, sequence (P80404 29-500, species assumed): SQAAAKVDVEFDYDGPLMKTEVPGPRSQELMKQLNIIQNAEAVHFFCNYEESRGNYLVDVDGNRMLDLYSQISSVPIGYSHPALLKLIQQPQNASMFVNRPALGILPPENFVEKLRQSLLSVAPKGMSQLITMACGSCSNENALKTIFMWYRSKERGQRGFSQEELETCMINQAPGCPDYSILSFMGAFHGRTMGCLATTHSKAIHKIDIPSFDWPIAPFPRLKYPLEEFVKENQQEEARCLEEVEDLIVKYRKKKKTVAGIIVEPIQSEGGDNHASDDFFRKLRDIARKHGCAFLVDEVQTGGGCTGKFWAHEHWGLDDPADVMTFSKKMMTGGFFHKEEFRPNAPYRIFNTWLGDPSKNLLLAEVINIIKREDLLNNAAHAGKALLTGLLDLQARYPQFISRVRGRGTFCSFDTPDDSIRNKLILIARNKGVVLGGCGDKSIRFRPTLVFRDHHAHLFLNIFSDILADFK

CCCC(CCC)C(=O)O [Valproic Acid]
lasting improvement in treating subject's symptoms, drugs received prior to therapy used in this study [1]: None showed lasting improvement in treating

COC(=O)C(c1ccccc1)C1CCCCN1 (stereo not drawn) [Methylphenidate]
lasting improvement in treating subject's symptoms, drugs received prior to therapy used in this study [1]: None showed lasting improvement in treating | share of children who develop symptoms of obsessive-compulsive behaviour [2]: one third

COC[C@@H](NC(C)=O)C(=O)NCc1ccccc1 [lacosamide, (2R)-2-(acetylamino)-N-benzyl-3-methoxypropanamide]
clinically effective dose of lacosamide in monotherapy ([3]; 2 patients): 600 mg per day | Clinically effective dose of lacosamide ([3]; Patient 1): 600 mg/day | Clinically effective dose of lacosamide ([3]; Patient 2): 600 mg/day | Clinically effective dose of lacosamide ([3]; Patient 3): 350 mg/day | clinically effective dose of lacosamide in monotherapy ([3]; one patient): 350 mg | mood instability (aggressive behaviour towards others, deliberately contained anger, sadness) ([4]; ADHD patients): only partially regressed | cognitive disabilities ([4]; Case 001): improved many cognitive disabilities | dysphasia, and extreme impulsiveness ([4]; Case 001): remained unchanged | pedagogic evolution (Comprehensive Reading) ([4]; Case 002): never obtained | ability to speak ([4]; Cases 002 and 003): unaffected | cognitive disability ([4]; Cases 002 and 003): improved under lacosamide alone, but the degree of the disability never really disappeared | hyperactivity regulation (severe hyperkinesia) ([4]; the one of 3 ADHD patients with hyperkinesia): did not improve | enuresis episodes ([4]; the two patients that suffered from this symptom): partially stopped | lethargic situations ([4]; two patients with absence of energy and tense tiredness): disappeared | non-verbal reasoning capacity ([5]; Case 003, after 6 months Lacosamide monotherapy vs after combined therapy): 95 points | TONI-2 Nonverbal Reasoning Ability, Level (CI) [5, 15]: CI-111 | TONI-2 Nonverbal Reasoning Ability, Severity Range [5, 15]: 17/55 | TONI-2 Nonverbal Reasoning Ability, Level (CI) [5, 16]: CI-104 | TONI-2 Nonverbal Reasoning Ability, Severity Range [5, 16]: 28/55 | TONI-2 Nonverbal Reasoning Ability, Level (CI) [5, 17]: CI-95 | TONI-2 Nonverbal Reasoning Ability, Severity Range [5, 17]: 19/55 | CPT-2-c Level [6, 15]: 1 | CPT-2-c impulsivity indicators (Severity Range) [6, 15]: No | CPT-2-o Level [6, 15]: Clinical | CPT-2-o Severity Range, score [6, 15]: 76.92% | CPT-2-o inattention indicators [6, 15]: 6 | CPT-2-o indicators within limitations in surveillance [6, 15]: 2 indicators | CPT-2-o Actual Interpretation ([6]; patient 001, table: December 2020, combination therapy, text b159: first vs second evaluation): Severe Impairment | CPT-2-c Level [6, 16]: 2 | CPT-2-c impulsivity indicators (Severity Range) [6, 16]: 1 impulsivity | CPT-2-o Level [6, 16]: Non | CPT-2-o Severity Range, score [6, 16]: 37.01% | CPT-2-o inattention indicators [6, 16]: 2 inattention | CPT-2-c Level [6, 17]: 2 | CPT-2-c impulsivity indicators (Severity Range) [6, 17]: 1 impulsivity | CPT-2-o Level [6, 17]: Clinical | CPT-2-o Severity Range, score [6, 17]: 50% | CPT-2-o inattention indicators [6, 17]: (6 inattention | WCST Cognitive flexibility, Level [7, 15]: 1 | WCST Cognitive flexibility, persistent errors [7, 15]: 24 persistent | WCST Reasoning (Abstraction Categorization), Level [7, 15]: 2 | WCST Reasoning (Abstraction Categorization), categories completed [7, 15]: 3 categories | WCST Cognitive flexibility, Level [7, 16]: 0 | WCST Cognitive flexibility, persistent errors [7, 16]: 5 persistent | WCST Reasoning (Abstraction Categorization), Level [7, 16]: 0 | WCST Reasoning (Abstraction Categorization), categories completed [7, 16]: 8 categories | WCST Cognitive flexibility, Level [7, 17]: 2 | WCST Cognitive flexibility, persistent errors [7, 17]: 23 persistent | WCST Reasoning (Abstraction Categorization), Level [7, 17]: 2 | WCST Reasoning (Abstraction Categorization), categories completed [7, 17]: 4 categories | WCST Cognitive flexibility, interpretation [7, 18]: Slight | WCST Reasoning (Abstraction Categorization), interpretation [7, 18]: Slight Impairment | Stroop-c Level [8, 15]: 1 | Stroop-c Nominative capacity, Severity Range [8, 15]: 43/100 | Stroop-c/p Level [8, 15]: 1 | Stroop-c/p Resistance to Perseveration, Severity Range [8, 15]: 18/100 | Stroop-p Level [8, 15]: 2 | Stroop-p Nominative capacity, Severity Range [8, 15]: 51 and 51/100 | Stroop-p Actual Interpretation ([8]; patient 001, table: December 2020, combination therapy, text b160: before vs after): Slight Impairment | Stroop-c Level [8, 16]: 3 | Stroop-c Nominative capacity, Severity Range [8, 16]: 40/100 | Stroop-c/p Level [8, 16]: 2 | Stroop-c/p Resistance to Perseveration, Severity Range [8, 16]: 30/100 | Stroop-p Level [8, 16]: 4 | Stroop-p Nominative capacity, Severity Range [8, 16]: 32/100 | Stroop-c Level [8, 17]: 2 | Stroop-c Nominative capacity, Severity Range [8, 17]: 51/100 | Stroop-c/p Level [8, 17]: 3 | Stroop-c/p Resistance to Perseveration, Severity Range [8, 17]: 21/100 | Stroop-p Level [8, 17]: 3 | Stroop-p Nominative capacity, Severity Range [8, 17]: 51/100 | fast inactivation of voltage-gated sodium channels [9]: without affecting | slow inactivation of voltage-gated sodium channels [9]: enhances | effect on AMPA, kainate, NMDA, GABAA, GABAB or dopaminergic, serotonergic, adrenergic, muscarinic or cannabinoid receptors [10]: does not affect | block of potassium or calcium currents [11]: does not block | modulation of the reuptake of neurotransmitters including norepinephrine, dopamine, and serotonin [12]: does not modulate | inhibition of GABA transaminase [13]: does not inhibit

NC(=O)N1c2ccccc2CC(=O)c2ccccc21 [oxcarbazepine, 5-oxo-6H-benzo[b][1]benzazepine-11-carboxamide]
aggressive behavior and lack of interactivity with other members of the household [14]: attention. They maintained aggressive | delivery of the desired therapeutic result [14]: Oxcarbazepine alone was not sufficient to | hyperkinesia and impulsiveness [14]: Minor improvement to subject's hyper- | sleeping pattern [14]: instability remained in sleeping pattern | way they behaved during awake moments, quality of their day's attention [14]: not approve in the way they behaved during

Nc1nnc(-c2cccc(Cl)c2Cl)c(N)n1 [Lamotrigine]
Neurophysiological and Neuropsychological symptoms [1]: combined therapy. This was not accomplished | lasting improvement in treating subject's symptoms, drugs received prior to therapy used in this study [1]: None showed lasting improvement in treating
